Blank lines part the entries; values can stand above or below the compound they belong to.
What was measured:
[1] = tested on: high-risk MM cell lines; assay: WST-1 cell proliferation inhibition (Example 8), panel of high-risk MM cell lines; type: cell-based; settings: Homo sapiens; range over the cell lines of Table 3; WST-1, 48 hours
Description: (§1) Similar to Example 7, high-risk MM cell lines were treated with drugs, TC11 and PEG5(E)-TC11 at arbitrary concentrations. […] Specifically, each high-risk MM cell line was prepared at 5×10^5 cells/ml, and then seeded at 50 μl per well (2.5×10^4 cells). Drugs such as TC11, and PEG5(E)-TC11 were added to wells at arbitrary concentrations. WST-1 reagent was added at 48 hours after addition of drugs. After 1 hour of reaction at 37° C. in a CO2 incubator, absorbance was measured at a wavelength of 450 nm using a microplate reader. Cell viability was found from an absorbance ratio using absorbance at 0 μM designated as 100%. IC50 was calculated from a semi-logarithmic chart using Microsoft (registered trademark) Excel.

[2] = tested on: KMM1 high-risk MM cell line; assay: WST-1 cell proliferation inhibition (Example 8), KMM1; type: cell-based; settings: Homo sapiens, KMM-1, WST-1, 48 hours, read-out: IC50, cell proliferation inhibitory activity, KMM1
Description: as §1

[3] = tested on: KMS11 high-risk MM cell line; assay: WST-1 cell proliferation inhibition (Example 8), KMS11; type: cell-based; settings: Homo sapiens, KMS-11, WST-1, 48 hours, read-out: IC50, cell proliferation inhibitory activity, KMS11
Description: as §1

[4] = Water solubility of drugs (saturation concentration by HPLC); type: physicochemical; settings: 100 mM Tris-HCl (pH 7.5); for Water solubility: 25° C., saturation concentration; for Water solubility, relative ratio (numerals in parentheses): relative to TC11
[5] = tested on: KMS34 high-risk MM cell line; assay: WST-1 cell proliferation inhibition (Example 8), KMS34; type: cell-based; settings: Homo sapiens, KMS-34, WST-1, 48 hours, read-out: IC50, cell proliferation inhibitory activity, KMS34
Description: as §1

[6] = tested on: KMS21 high-risk MM cell line; assay: WST-1 cell proliferation inhibition (Example 8), KMS21; type: cell-based; settings: Homo sapiens, WST-1, 48 hours, read-out: IC50, cell proliferation inhibitory activity, KMS21
Description: as §1

[7] = tested on: KMS11 xenograft; assay: Antitumor effect on KMS11 cancer-bearing mice (Example 17); type: in vivo, ICR/SCID mice
Description: KMS11 was administered to 5-week-old ICR/SCID mice at 2×10^7 cells/mouse via hypodermic injection. Tumor volumes were measured over time, and the day on which the tumor volume exceeded 50 mm^3 was designated as Day 1 and observation was performed for 9 days. […] On the day of administration, these solutions were diluted 10-fold with physiological saline while stirring with Vortex, and then intraperitoneally administered. Tumor volume was calculated by the following formula.
Tumor volume (mm^3)=major axis×minor axis×minor axis×π/6=major axis×minor axis×minor axis×0.5236

[8] = target: T1, cereblon (CRBN) (Homo sapiens, UniProt Q96SW2); assay: Pull-down assay of cereblon with biotinylated drug on streptavidin beads; type: binding; settings: 30° C., 30 minutes, FIG. 9A
T1 construct: recombinant full-length CRBN prepared by the above method was reacted with the beads; T7 tag (N); FLAG tag (C); made in house; host or cells: 293T cells (pcDNA3.3 vector), RIPA extract purified on Ni Sepharose excel
Description: CRBN was prepared as follows. A T7 tag was added 5′-upstream of, and a FLAG tag and a histidine tag were added 3′-downstream of a full-length CRBN gene. The gene was introduced into a pcDNA3.3 expression vector (Invitrogen), thereby constructing a plasmid DNA. Next, a Kozak sequence was added 5′-upstream of the T7 tag using a KOD-Plus-Mutagenesis Kit (TOYOBO). The plasmid DNA was transfected into 293T cells. After 4 days of culture at 37° C. with 5% CO2, cells were extracted with a RIPA buffer (Thermo), and then the extracted fraction was purified using Ni Sepharose excel (GE Healthcare). Since the purified fraction contained imidazole, TBS (Nacalai Tesque) was subjected to buffer exchange. […] Centrifugation was performed to separate the resultants into a flow-through (F) fraction and a bead (B) fraction. Protein bands corresponding to CRBN were separated by SDS-PAGE, and then detected by Western blot. […] Note that “I” indicates “Input fraction”.

[9] = tested on: KMS11 high-risk MM cell line; assay: MTT cell proliferation inhibition, KMS11; type: cell-based; settings: Homo sapiens, KMS-11, KMS11, t(4;14), del17, 48 hours, read-out: IC50, cell proliferation inhibitory activity, KMS11
Description: (§2) For examination of cell proliferation inhibitory activity, high-risk MM cell lines (KMM1, KMS11, KMS21, KMS26, KMS28, KMS34) established by Takemi Otsuki et al., of Kawasaki Medical School were used (Otsuki, T. et al., Int. J. Oncol., 15: 1205-1212, 1999). […] The genetic abnormality of these cell types, and in particular deletion of p53 gene were examined by FISH method (Chang, H. Blood, 105: 358-360, 2005) (WO2010/061862A1). […] These high-risk MM cell lines were treated with drugs such as TC11, HOEtO-TC11, PEG11(E)-TC11, and PEG11(O)-TC11 at arbitrary concentrations. […] Specifically, each high-risk MM cell line was prepared at a concentration of 2×10^5 cells/ml, and then seeded in an amount of 50 μl (1×10^4 cells) per well. After 24 hours, drugs such as TC11, HOEtO-TC11, PEG11(E)-TC11, and PEG11(O)-TC11 having arbitrary concentrations were added. At 48 hours after addition of each drug, 10 μL each of an MTT labeling reagent in Cell Proliferation Kit I [MTT] (Roche Diagnostics, Basel, Switzerland) was added. After 4 hours of treatment at 37° C., 100 μL each of solution buffer was added and then left to stand overnight at 37° C. Absorbance was measured using a microplate reader Infinit™ M1000 (Tecan, Maennedorf, Switzerland) at a wavelength of 570 nm. Cell viability was found from an absorbance ratio using absorbance at 0 μM designated as 100%. IC50 was calculated from a semi-logarithmic chart using Microsoft (registered trademark) Excel.

[10] = tested on: KMS34 high-risk MM cell line; assay: MTT cell proliferation inhibition, KMS34; type: cell-based; settings: Homo sapiens, KMS-34, KMS34, t(4;14), del17, 48 hours, read-out: IC50, cell proliferation inhibitory activity, KMS34
Description: as §2

[11] = tested on: KMS26 high-risk MM cell line; assay: MTT cell proliferation inhibition, KMS26; type: cell-based; settings: Homo sapiens, KMS-26, KMS26, t(4;14), t(4;16), del17, 48 hours, read-out: IC50, cell proliferation inhibitory activity, KMS26
Description: as §2

[12] = tested on: MUM24 MM cell line; assay: MTT cell proliferation inhibition, MUM24; type: cell-based; settings: Homo sapiens, MUM24, t(4;14), del13, del17, 48 hours, read-out: IC50, cell proliferation inhibitory activity, MUM24
[13] = tested on: KMS21 high-risk MM cell line; assay: MTT cell proliferation inhibition, KMS21; type: cell-based; settings: Homo sapiens, KMS21, t(11;14), 48 hours, read-out: IC50, cell proliferation inhibitory activity, KMS21
Description: as §2
Moreover, the concentration dependency of the in vitro cell proliferation inhibitory activity of TC11, and its derivatives, PEG11(E)-TC11 and HOEtO-TC11 against high-risk MM cell line (KMS21) was examined in detail (FIG. 4). […] Such a phenomenon was similarly observed for other high-risk MM cell lines, KMS11, KMS34, and MUM24.

[14] = tested on: KMM1 high-risk MM cell line; assay: MTT cell proliferation inhibition, KMM1; type: cell-based; settings: Homo sapiens, KMM-1, KMM1, t(6;14), t(8;14), del17, 48 hours, read-out: IC50, cell proliferation inhibitory activity, KMM1
Description: as §2

[15] = target: T1, cereblon (CRBN); assay: Surface plasmon resonance biosensor (BIACORE 3000) interaction with cereblon; type: binding; settings: measured at 1 μM, 2 μM and 10 μM, FIG. 9C
[16] = tested on: high-risk MM cell lines; assay: MTT cell proliferation inhibition, panel of high-risk MM cell lines; type: cell-based; settings: Homo sapiens, range over the cell lines of Table 2, 48 hours
Description: as §2

T1 sequence (Q96SW2 whole entry): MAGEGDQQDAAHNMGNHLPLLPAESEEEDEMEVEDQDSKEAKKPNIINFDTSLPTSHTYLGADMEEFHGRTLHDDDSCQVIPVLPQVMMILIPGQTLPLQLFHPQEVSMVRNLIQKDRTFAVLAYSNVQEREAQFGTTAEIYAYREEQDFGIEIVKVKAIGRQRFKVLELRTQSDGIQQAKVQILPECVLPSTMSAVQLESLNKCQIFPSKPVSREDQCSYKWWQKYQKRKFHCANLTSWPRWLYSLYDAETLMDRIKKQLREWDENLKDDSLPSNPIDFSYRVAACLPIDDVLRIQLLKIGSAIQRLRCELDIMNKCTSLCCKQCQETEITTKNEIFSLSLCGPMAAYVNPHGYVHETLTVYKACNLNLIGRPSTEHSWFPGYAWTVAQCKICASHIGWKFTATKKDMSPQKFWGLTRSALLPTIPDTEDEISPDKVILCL

- Water solubility [4]: 0.002 g/100 ml
- Water solubility, relative ratio (numerals in parentheses) [4]: 1 ×
Compound: COCCOCCOCCOCCOCCC(=O)OCCOc1cc2c(cc1N)C(=O)N(c1c(C(C)C)cccc1C(C)C)C2=O [PEG5(E)-TC11]
- IC50 [1]: 1.3 to 4.6 µM
- IC50 [2]: 3.6 µM
- IC50 [3]: 1.4 µM
- IC50 [5]: 6.5 µM
- IC50 [6]: 1.2 µM

- Binding of CRBN to drug immobilized on beads (pull-down, Western blot) [8]: bound
Compound: O=C1CCC(N2C(=O)c3ccccc3C2=O)C(=O)N1 (stereo not drawn) [thalidomide]

Further lines, the compound ahead of its results:

Compound: Nc1cccc2c1CN(C1CCC(=O)NC1=O)C2=O (stereo not drawn) [lenalidomide, reference compound]
- In vivo anti-tumor effect compared to HOEtO-TC11 ([7]; lenalidomide 49.9 mg/kgBW i.p., KMS11 xenograft): clearly weaker than that of HOEtO-TC11

Compound: CC(C)c1cccc(C(C)C)c1N1C(=O)c2cc(N)c(OCCO)cc2C1=O [HOEtO-TC11, hydroxyethoxy-TC11]
- IC50 [9]: 3.9 µM
- IC50 [10]: 4.1 µM
- IC50 [11]: 1.9 µM
- KMS-11 tumor growth, level relative to the control ([7]; Day 9, HOEtO-TC11 71.1 mg/kg BW i.p.): about ⅓
- KMS-11 tumor growth, level relative to TC11 ([7]; Day 9, HOEtO-TC11 71.1 mg/kg BW i.p. vs TC11 60 mg/kgBW): about a half
- KMS-11 tumor growth compared to control mice ([7]; Day 9, i.p., equimolar to TC11 60 mg/kgBW): tumor growth was suppressed
- IC50 [12]: 4 µM
- IC50 [13]: 2.4 µM
- IC50 [14]: 7.7 µM
- Water solubility [4]: 0.027 g/100 ml
- Water solubility, relative ratio (numerals in parentheses) [4]: 13.5 ×
- Binding to CRBN (SPR sensorgram) [15]: never bind to CRBN
- IC50 [16]: 1 to 8 µM

Compound: CC(C)c1cccc(C(C)C)c1N1C(=O)c2cc(N)c(OCCO[C@@H]3OC(CO)[C@@H](O)[C@H](O)C3O)cc2C1=O (stereo partly drawn) [Glu-TC11]
- Water solubility [4]: 0.082 g/100 ml
- Water solubility, relative ratio (numerals in parentheses) [4]: 41 ×
